In US5610160A, “Topical 5-fluorouracil prodrug composition and method” (priority 1994, dated 1997):
Converted amounts (≈) assume the structure as drawn. Where two headings read alike, the source gives them in different places.

Experiments:
[1] = Solubility of prodrug in isopropyl myristate (IPM); settings: for solubility: isopropyl myristate, organic solvent or mixture; for CIPM, equivalent mg of 5FU/ml: IPM, 23 ± 1° C., value in parentheses
Protocol: The results from the determination of the physicochemical properties are recorded in the tables as CIPM (the saturated solubility of the prodrug in the isopropyl myristate (IPM) vehicle/formulation in which the prodrug was applied to the mouse skins), K (the partition coefficients of the prodrug between IPM and a pH 4.0 acetate buffer) and Cw (the solubility of the prodrug in pH 4.0 acetate buffer calculated from the partition coefficient and the IPM solubility).

[2] = Diffusion cell experiments: delivery of 5-FU through hairless mouse skin; assay type: in vitro ADME; settings: for Ji, flux of 5-FU through the skin: from suspensions of prodrugs in IPM, hairless mouse skin; for Cs, amount of 5-FU in the skin: leached from hairless mouse skin in 24 hours subsequent to application of prodrug in vehicle for 48 hours; for Jj, flux of theophylline through the skin after application of the prodrug/formulation (relative damage): theophylline from suspension in PG
Protocol: The diffusion cell experiments were conducted as described by Sloan et al in J. Invest.
^b Flux in mg/cm^2 hour of 5FU from suspensions of prodrugs in
^c Amount of 5FU in mg leached from hairless mouse skin in 24 hours
subsequent to application of prodrug in vehicle for 48 hours.
^d Flux in mg/cm^2 hour of theophylline from suspension in PG.

skin malignancies = settings: topical, cited from earlier work
[3] = cited from earlier work
[4] = 22° C., cited from earlier work
not told = settings: 22 °C; cited from earlier work
[5] = Partition coefficient between IPM and pH 4.0 acetate buffer; assay type: physicochemical; settings: 23 ± 1° C.
Excerpt: ^a Partition coefficient between IPM and pH 4.0 acetate buffer at 23

[6] = 37° C., 0.05 M phosphate buffer pH 7.4, cited from earlier work
[7] = 37° C., 80% human plasma, cited from earlier work
[8] = shake-flask, brief shaking, IPM phase analyzed immediately; settings: 23 ± 1 °C
[9] = Buur et al (1986), compound 11 from Buur et al (1987)
[10] = 22° C., J. Pharm. Sci. 75, 522, Buur et al (1986), compound 11 from Int. J. Pharm. 36, 41 (1987)
[11] = 22° C., Int. J. Pharm. 21, 349, Buur et al (1984)

In the case of `O=c1[nH]cc(F)c(=O)[nH]1` [Compound 5-FU, 5-fluorouracil], the solubility [1] is reported as 6.4 µg/mL (≈ 0.0492 mM), the “Ji, flux of 5-FU through the skin” value [2] is reported as 0.0311 mg/cm^2 hour and the “Cs, amount of 5-FU in the skin” value [2] is reported as 0.48 mg. For the same compound, the “Jj, flux of theophylline through the skin after application of the prodrug/formulation (relative damage)” value [2] was 0.215 mg/cm^2 hour, the treating superficial lesions (skin malignancies; actinic keratoses and basal cell carcinomas) was “successful” and the “treating deeper lesions or actinic keratoses of the extremities” value (skin malignancies) was “ineffective”. The “log K, octanol/pH 4.0 acetate buffer” value ([3]; octanol/acetate buffer, pH 4) was -0.83 and the “Cw, solubility at pH 4.0 acetate buffer” value [4, 9] was 11.1 mg/ml.

In the case of `CCOC(=O)n1cc(F)c(=O)[nH]c1=O` [Compound 8], the “log partition octanol / pH 4.0 acetate buffer” value (not told) is listed as -0.17 log10 concentration ratio, the “CIPM, equivalent mg of 5FU/ml” value [1] is listed as 1.70 equivalent mg of 5FU/ml and the solubility [1] is listed as 2640 µg/mL (≈ 13.1 mM). For the same compound, the “K, partition coefficient between IPM and pH 4.0 acetate buffer” value [5] was 0.0757, the “Ji, flux of 5-FU through the skin” value [2] was 0.770 mg/cm^2 hour and the “Cs, amount of 5-FU in the skin” value [2] was 2.38 mg. For the same compound, the “Jj, flux of theophylline through the skin after application of the prodrug/formulation (relative damage)” value [2] was 0.357 mg/cm^2 hour, the “Half-life, Buffer” value [6, 9] was 550 min and the “Half-life, 80% Plasma” value [7, 9] was 2.1 min. For the same compound, the “log K, octanol/pH 4.0 acetate buffer” value [3, 10] was -0.17, the “Cw, solubility at pH 4.0 acetate buffer” value [4, 9] was 6.9 mg/ml and the “log partition isopropyl myristate / pH 4.0 acetate buffer” value [8] was 0.0757 concentration ratio.

In the case of `CCCCOC(=O)n1cc(F)c(=O)[nH]c1=O` [Compound 10], the “log partition octanol / pH 4.0 acetate buffer” value (not told) is listed as 0.89 log10 concentration ratio, the solubility [1] is listed as 7770 µg/mL (≈ 33.8 mM) and the “K, partition coefficient between IPM and pH 4.0 acetate buffer” value [5] is listed as 1.46. For the same compound, the “Ji, flux of 5-FU through the skin” value [2] was 0.284 mg/cm^2 hour, the “Cs, amount of 5-FU in the skin” value [2] was 0.54 mg and the “Jj, flux of theophylline through the skin after application of the prodrug/formulation (relative damage)” value [2] was 0.321 mg/cm^2 hour. For the same compound, the “Half-life, Buffer” value [6, 9] was 550 min, the “Half-life, 80% Plasma” value [7, 9] was 3.1 min and the “log K, octanol/pH 4.0 acetate buffer” value [3, 10] was 0.89. For the same compound, the “Cw, solubility at pH 4.0 acetate buffer” value [4, 9] was 5.9 mg/ml and the “log partition isopropyl myristate / pH 4.0 acetate buffer” value [8] was 1.46 concentration ratio.

In the case of `CCCCCCOC(=O)n1cc(F)c(=O)[nH]c1=O` [Compound 11], the “log partition octanol / pH 4.0 acetate buffer” value (not told) is given as 2.04 log10 concentration ratio, the solubility [1] is given as 8700 µg/mL (≈ 33.7 mM) and the “K, partition coefficient between IPM and pH 4.0 acetate buffer” value [5] is given as 31.1. For the same compound, the “Ji, flux of 5-FU through the skin” value [2] was 0.195 mg/cm^2 hour, the “Cs, amount of 5-FU in the skin” value [2] was 1.38 mg and the “Jj, flux of theophylline through the skin after application of the prodrug/formulation (relative damage)” value [2] was 0.321 mg/cm^2 hour. The “Half-life, Buffer” value [6, 9] was 550 min, the “Half-life, 80% Plasma” value [7, 9] was 2.0 min and the “log K, octanol/pH 4.0 acetate buffer” value [3, 10] was 2.04. For the same compound, the “Cw, solubility at pH 4.0 acetate buffer” value [4, 9] was 1.5 mg/ml and the “log partition isopropyl myristate / pH 4.0 acetate buffer” value [8] was 31.1 concentration ratio.

For `CC(=O)n1c(=O)[nH]cc(F)c1=O` [Compound 13], the “log partition octanol / pH 4.0 acetate buffer” value (not told) is given as -0.34 log10 concentration ratio, the solubility [1] is given as 74 µg/mL (≈ 0.43 mM) and the “K, partition coefficient between IPM and pH 4.0 acetate buffer” value [5] is given as 0.040. For the same compound, the “Ji, flux of 5-FU through the skin” value [2] was 0.575 mg/cm^2 hour, the “Cs, amount of 5-FU in the skin” value [2] was 1.77 mg and the “Jj, flux of theophylline through the skin after application of the prodrug/formulation (relative damage)” value [2] was 0.282 mg/cm^2 hour. For the same compound, the “Half-life, Buffer” value ([6]; Buur et al (1984)) was 43 min, the “Half-life, 80% Plasma” value ([7]; Buur et al (1984)) was 4.6 min and the “log K, octanol/pH 4.0 acetate buffer” value [3, 11] was -0.34. The “Cw, solubility at pH 4.0 acetate buffer” value ([4]; Buur et al (1984)) was 42.8 mg/ml and the “log partition isopropyl myristate / pH 4.0 acetate buffer” value [8] was 0.040 concentration ratio.

For `CCC(=O)n1c(=O)[nH]cc(F)c1=O` [Compound 14], the “log partition octanol / pH 4.0 acetate buffer” value (not told) is listed as 0.19 log10 concentration ratio, the “CIPM, equivalent mg of 5FU/ml” value [1] is listed as 1.83 equivalent mg of 5FU/ml and the solubility [1] is listed as 2620 µg/mL (≈ 14.1 mM). The “K, partition coefficient between IPM and pH 4.0 acetate buffer” value [5] was 0.088, the “Jj, flux of theophylline through the skin after application of the prodrug/formulation (relative damage)” value [2] was 0.318 mg/cm^2 hour and the “Half-life, Buffer” value ([6]; Buur et al (1984)) was 50 min. For the same compound, the “Half-life, 80% Plasma” value ([7]; Buur et al (1984)) was 20 min, the “log K, octanol/pH 4.0 acetate buffer” value [3, 11] was 0.19 and the “Cw, solubility at pH 4.0 acetate buffer” value ([4]; Buur et al (1984)) was 35.3 mg/ml. The “log partition isopropyl myristate / pH 4.0 acetate buffer” value [8] was 0.088 concentration ratio.
